Experimental data from patent US20060234378A1, “Molecular switch regulating neurogenesis” (The Salk Institute For Biological Studies, priority 2005, published 2006).

System: NeuroD1 and NeuroD2 genes
Test: RT PCR of NeuroD genes after TSA and 5AzaC treatment of adult hippocampal neural stem cells
Assay type: cell-based, rat
Settings: 5 nM for 2 days
Description: To determine whether either of these mechanisms contributed to repression of the NeuroD promoter, adult hippocampal neural stem cells were treated with either an HDAC inhibitor, trichostatin A (TSA), or with the de-methylation reagent 5′-aza-cytidine (5AzaC). Total RNA was extracted from cells that had been treated with 5 nM TSA for 2 days and with 3 μM 5AzaC for 4 days. RT PCR analysis was performed with specific primers for NeuroD1 (SEQ ID NOs:7 and 8) and NeuroD2 (SEQ ID NOs:9 and 10) genes and a control gene, GAPDH (SEQ ID NOs:3 and 4).

With `CC(/C=C/C(=O)NO)=C\[C@@H](C)C(=O)c1ccc(N(C)C)cc1` [TSA, trichostatin A] the “expression of GAPDH (control gene)” value was “no effects” and the “endogenous expression levels of mRNAs of NeuroD1 and NeuroD2” value (compared with untreated progenitor cultures) was “increased”.
